“And” between values parts separate entries of the source, which are not always exact repeats. Identical values can stand only once. Toxic doses and inconclusive results are not listed. No stated cut-off is given here; in the data, active means T/C of 150% or more; inactive means T/C below 125%.
System: L1210 leukemia ip in BDF1 mice, survival T/C
Experiment: NCI In Vivo Anticancer Drug Screen. Data for tumor model L1210 Leukemia (intraperitoneal) in B6D2F1 (BDF1) mice
Settings: endpoint: mean survival time, higher = longer survival
Procedure, shortened: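 Mice bearing the transplanted tumor received compound or vehicle. Survival of the treated group was divided by that of the vehicle-treated control group to give the ratio.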

[1] = dose: 100.0 mg/kg/injection, schedule: Q01DX001 (ip), vehicle: saline
[2] = dose: 200.0 mg/kg/injection, schedule: Q01DX001 (ip), vehicle: saline
[3] = dose: 400.0 mg/kg/injection, schedule: Q01DX001 (ip), vehicle: saline

Measured: T/C

Cc1ccc(NC(=S)Nc2ccc(Cc3ccc(NC(=S)Nc4ccc(C)cc4)cc3)cc2)cc1
inactive: dose: 100.0 mg/kg/injection, schedule: Q04DX002 (ip), vehicle: saline with Tween-80 98 % of control | dose: 200.0 mg/kg/injection, schedule: Q04DX002 (ip), vehicle: saline with Tween-80 103 % of control | dose: 400.0 mg/kg/injection, schedule: Q04DX002 (ip), vehicle: saline with Tween-80 88 % of control

C[n+]1ncc2ccccc2c1Cc1ccc(Br)cc1
inactive: dose: 6.25 mg/kg/injection, schedule: Q01DX009 (ip), vehicle: other 98 % of control and 103 % of control | dose: 6.25 mg/kg/injection, schedule: Q04DX002 (ip), vehicle: carboxymethylcellulose (CMC) 91 % of control | dose: 12.5 mg/kg/injection, schedule: Q01DX009 (ip), vehicle: other 108 % of control and 86 % of control | dose: 12.5 mg/kg/injection, schedule: Q04DX002 (ip), vehicle: carboxymethylcellulose (CMC) 106 % of control | dose: 25.0 mg/kg/injection, schedule: Q04DX002 (ip), vehicle: carboxymethylcellulose (CMC) 91 % of control | dose: 25.0 mg/kg/injection, schedule: Q04DX002 (ip), vehicle: other 100 % of control and 90 % of control

CSC(N)=NC#N
inactive: dose: 100.0 mg/kg/injection, schedule: Q04DX002 (ip), vehicle: other 111 % of control | dose: 200.0 mg/kg/injection, schedule: Q04DX002 (ip), vehicle: other 93 % of control | dose: 400.0 mg/kg/injection, schedule: Q04DX002 (ip), vehicle: other 107 % of control

CC(C)(C)OC(=O)NC(CSCc1ccccc1)C(=O)O (stereo not drawn)
inactive: dose: 50.0 mg/kg/injection, schedule: Q01DX009 (ip), vehicle: Klucel (hydroxypropylcellulose) (HPC) 98 % of control | dose: 100.0 mg/kg/injection, schedule: Q01DX009 (ip), vehicle: Klucel (hydroxypropylcellulose) (HPC) 92 % of control | dose: 100.0 mg/kg/injection, schedule: Q01DX009 (ip), vehicle: saline with Tween-80 91 % of control | dose: 200.0 mg/kg/injection, schedule: Q01DX009 (ip), vehicle: Klucel (hydroxypropylcellulose) (HPC) 98 % of control | dose: 200.0 mg/kg/injection, schedule: Q01DX009 (ip), vehicle: saline with Tween-80 89 % of control

CC(=O)C1=CCC2C3CC(C)=C4CC(O)CCC4(C)C3CCC12C (stereo not drawn)
inactive: dose: 100.0 mg/kg/injection, schedule: Q04DX003 (ip), vehicle: saline with Tween-80 94 % of control | dose: 200.0 mg/kg/injection, schedule: Q04DX003 (ip), vehicle: saline with Tween-80 92 % of control | dose: 400.0 mg/kg/injection, schedule: Q04DX003 (ip), vehicle: saline with Tween-80 90 % of control

CC1CCCCN1Cc1ccccc1COC(=O)c1ccc(Br)cc1 (stereo not drawn)
inactive: dose: 100.0 mg/kg/injection, schedule: Q04DX002 (ip), vehicle: Klucel (hydroxypropylcellulose) (HPC) 101 % of control | dose: 200.0 mg/kg/injection, schedule: Q04DX002 (ip), vehicle: Klucel (hydroxypropylcellulose) (HPC) 92 % of control | dose: 400.0 mg/kg/injection, schedule: Q04DX002 (ip), vehicle: Klucel (hydroxypropylcellulose) (HPC) 96 % of control

O=C(NCCCCC(NC(=O)OCc1ccccc1)C(=O)Nc1ccc(Nc2ccc(NC(=O)C(CCCCNC(=O)OCc3ccccc3)NC(=O)OCc3ccccc3)cc2)cc1)OCc1ccccc1 (stereo not drawn)
inactive: [1] 88 % of control | [2] 92 % of control | [3] 94 % of control

CCCCNC(=O)c1n[se]nc1NC(N)=O
inactive: dose: 25.0 mg/kg/injection, schedule: Q01DX Z (ip), vehicle: carboxymethylcellulose (CMC) 91 % of control | dose: 37.5 mg/kg/injection, schedule: Q01DX Z (ip), vehicle: carboxymethylcellulose (CMC) 89 % of control | dose: 50.0 mg/kg/injection, schedule: Q01DX Z (ip), vehicle: carboxymethylcellulose (CMC) 90 % of control

CCOC(=O)COc1c(C(C)CC)cc([N+](=O)[O-])cc1[N+](=O)[O-] (stereo not drawn)
inactive: dose: 25.0 mg/kg/injection, schedule: Q01DX009 (ip), vehicle: gum acacia 93 % of control | dose: 25.0 mg/kg/injection, schedule: Q04DX002 (ip), vehicle: gum acacia 104 % of control | dose: 50.0 mg/kg/injection, schedule: Q01DX009 (ip), vehicle: gum acacia 93 % of control | dose: 50.0 mg/kg/injection, schedule: Q04DX002 (ip), vehicle: gum acacia 100 % of control | dose: 100.0 mg/kg/injection, schedule: Q01DX009 (ip), vehicle: gum acacia 90 % of control | dose: 100.0 mg/kg/injection, schedule: Q04DX002 (ip), vehicle: gum acacia 100 % of control and 92 % of control

Cc1nc2ccccc2c(C)c1-c1c(C)nc2ccccc2c1C
inactive: dose: 100.0 mg/kg/injection, schedule: Q01DX001 (ip), vehicle: Klucel (hydroxypropylcellulose) (HPC) 98 % of control | dose: 100.0 mg/kg/injection, schedule: Q01DX009 (ip), vehicle: saline 97 % of control | dose: 100.0 mg/kg/injection, schedule: Q04DX003 (ip), vehicle: saline 100 % of control | dose: 200.0 mg/kg/injection, schedule: Q01DX001 (ip), vehicle: Klucel (hydroxypropylcellulose) (HPC) 108 % of control | dose: 200.0 mg/kg/injection, schedule: Q01DX009 (ip), vehicle: saline 95 % of control | dose: 200.0 mg/kg/injection, schedule: Q04DX003 (ip), vehicle: saline 97 % of control | dose: 400.0 mg/kg/injection, schedule: Q01DX001 (ip), vehicle: Klucel (hydroxypropylcellulose) (HPC) 103 % of control | dose: 400.0 mg/kg/injection, schedule: Q01DX009 (ip), vehicle: saline 94 % of control | dose: 400.0 mg/kg/injection, schedule: Q04DX003 (ip), vehicle: saline 94 % of control

O=C(O)COc1ccc(C(=O)c2cc(Br)ccc2OCC(=O)O)cc1
inactive: dose: 100.0 mg/kg/injection, schedule: Q01DX001 (ip), vehicle: carboxymethylcellulose (CMC) 105 % of control | dose: 200.0 mg/kg/injection, schedule: Q01DX001 (ip), vehicle: carboxymethylcellulose (CMC) 98 % of control | dose: 400.0 mg/kg/injection, schedule: Q01DX001 (ip), vehicle: carboxymethylcellulose (CMC) 103 % of control

CC(C)C1(C(C)C)S(=O)(=O)CCS1(=O)=O
inactive: [1] 98 % of control | [2] 93 % of control | [3] 102 % of control

CCCB(O)O
inactive: dose: 100.0 mg/kg/injection, schedule: Q01DX001 (ip), vehicle: other 100 % of control | dose: 100.0 mg/kg/injection, schedule: Q04DX003 (ip), vehicle: other 106 % of control | dose: 200.0 mg/kg/injection, schedule: Q01DX001 (ip), vehicle: other 101 % of control | dose: 200.0 mg/kg/injection, schedule: Q04DX003 (ip), vehicle: other 105 % of control | dose: 400.0 mg/kg/injection, schedule: Q01DX001 (ip), vehicle: other 101 % of control | dose: 400.0 mg/kg/injection, schedule: Q04DX003 (ip), vehicle: other 106 % of control

Cc1cc2c(cc1C)N(C(=O)CCl)CC(=O)N2
inactive: dose: 9.37 mg/kg/injection, schedule: Q01DX009 (ip), vehicle: acetone 95 % of control | dose: 18.75 mg/kg/injection, schedule: Q01DX009 (ip), vehicle: acetone 93 % of control | dose: 18.75 mg/kg/injection, schedule: Q04DX003 (ip), vehicle: saline 96 % of control | dose: 37.5 mg/kg/injection, schedule: Q01DX009 (ip), vehicle: acetone 93 % of control | dose: 37.5 mg/kg/injection, schedule: Q04DX003 (ip), vehicle: saline 98 % of control | dose: 75.0 mg/kg/injection, schedule: Q01DX001 (ip), vehicle: saline 113 % of control | dose: 75.0 mg/kg/injection, schedule: Q04DX003 (ip), vehicle: saline 93 % of control

N=C(N)Sc1n[nH]c(=O)[nH]c1=O
inactive: dose: 75.0 mg/kg/injection, schedule: Q01DX001 (ip), vehicle: alcohol 100 % of control | dose: 150.0 mg/kg/injection, schedule: Q01DX001 (ip), vehicle: alcohol 90 % of control

COc1cc2ccc3c4ccccc4c[n+](C)c3c2cc1OC
inactive: dose: 18.75 mg/kg/injection, schedule: Q01DX001 (ip), vehicle: saline with Tween-80 106 % of control | dose: 37.5 mg/kg/injection, schedule: Q01DX001 (ip), vehicle: saline with Tween-80 106 % of control | dose: 75.0 mg/kg/injection, schedule: Q01DX001 (ip), vehicle: saline with Tween-80 113 % of control

— PubChem BioAssay AID248 (DTP/NCI, 2004)
